Measured values published in US12594262B2, “CAI nanoemulsions” (ForwardVue Pharma, Inc., priority 2019, dated 2026).

Assays:
[1] = Stability of CAI to autoclave sterilization, RP-HPLC analysis with UV detection; type: physicochemical; conditions: autoclaving, for instance 121° C. for about 30 minutes
Experimental: Stable sterile formulations can then be prepared by autoclaving for sufficient time at temperatures suitable for effectively killing the microorganisms that may be present in the formulation, for instance, 121° C. for about 30 minutes.

[2] = cited from earlier work
[3] = cited from earlier work; remark: listed apart in the source
[4] = cited from earlier work; remark: listed apart in the source
[5] = humans, single 5 mg peribulbar injection; cited from earlier work

Row | SMILES | decomposition of CAI or formation of new impurities after sterilization [1] | plasma concentrations associated with unacceptable toxicity [2] | toxic effects observed in clinical studies ([3]; doses required to achieve circulating levels projected for inhibition of pathological neovascularization) | serious side effect of clinical use ([3]; systemic administration, two cases described (Berlin et al. 2002)) | physiological tissue concentrations [4] | concentration detected in the vitreous cavity [5] [ng/mL]
1 | NC(=O)c1nnn(Cc2cc(Cl)c(C(=O)c3ccc(Cl)cc3)c(Cl)c2)c1N [CAI] | no decomposition of CAI or formation of new impurities could be detected | above 100 micromolar | cerebellar ataxia, peripheral neuropathy and exacerbation of depression | loss of vision | 1-10 μM | 
2 | C[C@@H]1C[C@H]2[C@@H]3CCC4=CC(=O)C=C[C@]4(C)[C@@]3(F)[C@@H](O)C[C@]2(C)[C@@]1(O)C(=O)CO [Dexamethasone] |  |  |  |  |  | 13
